The assay deals with dox-inducible GFP expression cassette. The assay can be described thus: Dox-inducible GFP expression cassette integrated into AAVS1 locus of iPSCs. The assay is classed as cell-based, human. On the procedure: This Example describes an experiment in which a green fluorescent protein expression cassette was integrated into the AAVS1 gene locus as illustrated in FIG. 21. AAVS1 ZFN mRNA and donor plasmid were delivered into iPSCs via electroporation on Day −7. One week later (Day 0), puromycin was added (0.3 μg/mL) to the tissue culture to begin positive selection for cells having undergone targeted integration. Doxycycline was added at Day 15 and maintained in culture at 3 different doses (0.3, 1, and 3 μg/mL) to induce expression of the dox-inducible GFP expression cassette. […] Cells were maintained in the presence of doxycycline for 13 days. During this period, the 3 μg/mL dose of doxycycline yielded the highest level of inducible GFP transgene expression (94%; FIG. 22). This high level of expression was sustained while doxycycline was present in culture. Cells were maintained in puromycin as well as doxycycline from Day 15-28 and were further positively selected (increase from ˜50% to ˜70% of alleles with targeted integration).

As to `C[C@H]1c2cccc(O)c2C(=O)C2=C(O)[C@]3(O)C(=O)C(C(N)=O)=C(O)[C@@H](N(C)C)[C@@H]3[C@@H](O)[C@@H]21` [doxycycline], the “Inducible GFP transgene expression” value (3 μg/mL doxycycline, iPSCs, maintained 13 days) was determined as 94%.

As to `COc1ccc(C[C@H](N)C(=O)N[C@H]2[C@@H](O)[C@H](n3cnc4c(N(C)C)ncnc43)O[C@@H]2CO)cc1` [puromycin], the “Alleles with targeted integration after positive selection” value (puromycin as well as doxycycline, Day 15-28, increase from ~50%) is listed as ~70%.

The values are drawn from US20230392118A1, “GENERATION OF CD4+ EFFECTOR AND REGULATORY T CELLS FROM HUMAN PLURIPOTENT STEM CELLS” (Sangamo Therapeutics, Inc., priority 2020, published 2023).
